Tests used:
[1] = Sensory evaluation in potage solution with potassium chloride (Experimental Example 3); conditions: Potage solution with 0.8 wt % potassium chloride; addition concentration 100 ppb (12.5 weight ppm with respect to potassium chloride)
Procedure: (§1) As shown in the following (1) to (3) below, 0.8 wt % of potassium chloride was added to a food base powder corresponding to 0.5 wt % of sodium chloride to prepare each base solution having an off-taste derived from potassium chloride.
Potassium chloride (0.8 g) was added to a commercially available powdered instant potage (manufactured by Ajinomoto Co., Inc., trade name “Knorr (registered trade mark) Cup Soup Potage”) (7.1 g), hot water (92.1 g) was added to dissolve the mixture to prepare a base solution (potage solution).
(§2) Each compound shown in the following Tables 15 to 17 was added to each base solution (ramen noodle soup solution, chicken broth solution, potage solution) so as to achieve the concentration (addition concentration) shown in the following Tables 15 to 17 to prepare each evaluation sample.
(§3) By a method similar to that in Experimental Example 1, a panel of two experts determined the intensity of off-tastes (bitter taste, metallic taste, harsh taste, astringent taste) derived from potassium chloride in each evaluation sample.

[2] = Sensory evaluation in chicken broth solution with potassium chloride (Experimental Example 3); conditions: chicken broth solution with 0.8 wt % potassium chloride; addition concentration 100 ppb (12.5 weight ppm with respect to potassium chloride)
Procedure: as §1
Potassium chloride (0.8 g) was added to a commercially available powdered chicken broth mix (manufactured by Ajinomoto Co., Inc., trade name “Marutorigara Soup”) (1.0 g), hot water (98.2 g) was added to dissolve the mixture to prepare a base solution (chicken broth soup solution).
as §2, §3

[3] = Sensory evaluation in ramen noodle soup solution with potassium chloride (Experimental Example 3)
Procedure: as §1
Potassium chloride (0.8 g) was added to a soup powder (1.1 g) of a commercially available instant ramen noodle (manufactured by SANYO FOODS Co., Ltd., trade name “Sapporo Ichiban Shouyuaji”), hot water (98.1 g) was added to dissolve the mixture to prepare a base solution (ramen noodle soup solution).
as §2, §3

[4] = Sensory evaluation of off-taste suppressing effect in 0.8 wt % potassium chloride aqueous solution (Experimental Examples 1 and 2); conditions: for off-taste suppressing effect: 0.8 wt % potassium chloride aqueous solution
Procedure: Each compound shown in the following Tables 1 to 13 was added to a 0.8 wt % potassium chloride aqueous solution at the concentration (addition concentration) shown in the following Tables 1 to 13 to prepare each evaluation sample.
Based on the following evaluation criteria, a panel of two experts determined by consensus the intensity of off-tastes (bitter taste, metallic taste, harsh taste, astringent taste) derived from potassium chloride in each evaluation sample, by reference to each potassium chloride aqueous solution adjusted to 0.8 wt %, 0.75 wt %, 0.7 wt %, or 0.65 wt %.
−: intensity of the same level as potassium chloride aqueous solution with potassium chloride concentration of not less than 0.8 wt %
+: intensity of the same level as potassium chloride aqueous solution with potassium chloride concentration of not less than 0.75 wt % and less than 0.8 wt %
++: intensity of the same level as potassium chloride aqueous solution with potassium chloride concentration of not less than 0.7 wt % and less than 0.75 wt %
+++: intensity of the same level as potassium chloride aqueous solution with potassium chloride concentration of not less than 0.65 wt % and less than 0.7 wt %
Each compound shown in the following Table 14 was added to a 0.8 wt % potassium chloride aqueous solution at the concentration (addition concentration) shown in the following Table 14 to prepare each evaluation sample.

In the case of CC1=C(O)C(=O)CO1 [4-hydroxy-5-methyl-3(2H)-furanone], the off-taste suppressing effect [1] is reported as “++ (intensity of the same level as potassium chloride aqueous solution with potassium chloride concentration of not less than 0.7 wt % and less than 0.75 wt %)”, the off-taste suppressing effect [2] is reported as “++ (intensity of the same level as potassium chloride aqueous solution with potassium chloride concentration of not less than 0.7 wt % and less than 0.75 wt %)” and the off-taste suppressing effect ([3]; Ramen noodle soup solution with 0.8 wt % potassium chloride, addition concentration 100 ppb (12.5 weight ppm with respect to potassium chloride)) is reported as “++ (intensity of the same level as potassium chloride aqueous solution with potassium chloride concentration of not less than 0.7 wt % and less than 0.75 wt %)”. The “intensity of off-tastes (bitter taste, metallic taste, harsh taste, astringent taste) derived from potassium chloride” value ([3]; base solutions of Tables 15 to 17 (ramen noodle soup, chicken broth, potage)) was “decreased”, the off-taste suppressing effect ([4]; addition concentration 1 weight ppb (0.125 weight ppm with respect to potassium chloride)) was “+ (intensity of the same level as potassium chloride aqueous solution with potassium chloride concentration of not less than 0.75 wt % and less than 0.8 wt %)” and the off-taste suppressing effect ([4]; addition concentration 5 weight ppb (0.625 weight ppm with respect to potassium chloride)) was “+ (intensity of the same level as potassium chloride aqueous solution with potassium chloride concentration of not less than 0.75 wt % and less than 0.8 wt %)”. For the same molecule, the off-taste suppressing effect ([4]; addition concentration 10 weight ppb (1.25 weight ppm with respect to potassium chloride)) was “+ (intensity of the same level as potassium chloride aqueous solution with potassium chloride concentration of not less than 0.75 wt % and less than 0.8 wt %)”, the off-taste suppressing effect ([4]; addition concentration 50 weight ppb (6.25 weight ppm with respect to potassium chloride)) was “++ (intensity of the same level as potassium chloride aqueous solution with potassium chloride concentration of not less than 0.7 wt % and less than 0.75 wt %)” and the off-taste suppressing effect ([4]; addition concentration 100 weight ppb (12.5 weight ppm with respect to potassium chloride)) was “++ (intensity of the same level as potassium chloride aqueous solution with potassium chloride concentration of not less than 0.7 wt % and less than 0.75 wt %)”. For the same molecule, the off-taste suppressing effect ([4]; addition concentration 500 weight ppb (62.5 weight ppm with respect to potassium chloride)) was “+ (intensity of the same level as potassium chloride aqueous solution with potassium chloride concentration of not less than 0.75 wt % and less than 0.8 wt %)” and the “intensity of off-tastes (bitter taste, metallic taste, harsh taste, astringent taste) derived from potassium chloride” value ([4]; potassium chloride aqueous solutions, Tables 1 to 14) was “decreased”.

Source: US20220279826A1, “OFF-FLAVOR SUPPRESSING AGENT” (AJINOMOTO CO., INC., priority 2019, published 2022)
